Key:
mGAT1 [1] = biological target: T1, mGAT1 (Mus musculus, UniProt P31648); assay: MS Binding Assay with NO711 as native MS marker; details: MS Binding Assay, NO711 marker; pKi±SEM; read-out: pK i mGAT1 (converted)
T1 construct: expressed in transfected cells; host or cells: HEK293
Summary of the method: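 Competitive MS binding using membranes from HEK293 cells stably expressing mGAT1, with 10 nM unlabeled NO711 as marker and compounds at 7 concentrations. Nonspecific binding defined with 100 mM GABA. Bound NO711 eluted after filtration and quantified by LC-ESI-MS/MS against [2H10]NO711; Ki derived.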

mGAT2 = biological target: T2, mGAT2 (Mus musculus, UniProt P31651); assay: [^3H]GABA uptake assay, HEK293 cells expressing mGAT2; type: cell-based; details: HEK293; in presence of 100 μM compound
T2 construct: expressed in transfected cells; host or cells: HEK293
T2 sequence (P31651 1-614): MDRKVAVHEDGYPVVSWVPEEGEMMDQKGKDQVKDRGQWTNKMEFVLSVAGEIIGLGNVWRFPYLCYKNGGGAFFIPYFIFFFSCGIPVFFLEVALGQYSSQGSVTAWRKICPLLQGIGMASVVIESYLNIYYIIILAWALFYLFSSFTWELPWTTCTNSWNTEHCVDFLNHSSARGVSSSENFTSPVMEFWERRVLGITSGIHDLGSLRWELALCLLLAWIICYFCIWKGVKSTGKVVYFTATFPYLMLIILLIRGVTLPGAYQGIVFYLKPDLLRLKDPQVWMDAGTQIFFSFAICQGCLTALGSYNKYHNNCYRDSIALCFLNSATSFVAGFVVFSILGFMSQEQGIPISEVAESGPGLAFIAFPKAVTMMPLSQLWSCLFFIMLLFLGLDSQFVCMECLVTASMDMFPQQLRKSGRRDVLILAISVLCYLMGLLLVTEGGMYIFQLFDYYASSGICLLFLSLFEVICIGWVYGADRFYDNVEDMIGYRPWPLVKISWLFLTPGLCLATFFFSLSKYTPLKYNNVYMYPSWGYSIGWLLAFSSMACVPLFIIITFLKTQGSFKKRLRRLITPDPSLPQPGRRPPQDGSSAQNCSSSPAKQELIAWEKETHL
Summary of the method: (§1)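 HEK293 cells expressing mouse GATs preincubated 25 min at 37 °C with compound in Krebs buffer pH 7.2, then [3H]GABA added: 8 nM plus 32 nM unlabeled for 4 min (mGAT1/3/4), 20 nM plus 20 nM for 10 min (mGAT2). Filtration, scintillation counting; nonspecific uptake with 10 mM (mGAT1/3/4) or 100 mM GABA (mGAT2); pIC50.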

mGAT1 [2] = biological target: T1, mGAT1; assay: [^3H]GABA uptake assay, HEK293 cells expressing mGAT1; type: cell-based; details: [^3H]GABA uptake; pIC50±SEM
Summary of the method: as §1

mGAT4 = biological target: T3, mGAT4 (Mus musculus, UniProt P31650); assay: [^3H]GABA uptake assay, HEK293 cells expressing mGAT4; type: cell-based; details: [^3H]GABA uptake; pIC50±SEM
T3 construct: expressed in transfected cells; host or cells: HEK293
T3 sequence (P31650 1-627): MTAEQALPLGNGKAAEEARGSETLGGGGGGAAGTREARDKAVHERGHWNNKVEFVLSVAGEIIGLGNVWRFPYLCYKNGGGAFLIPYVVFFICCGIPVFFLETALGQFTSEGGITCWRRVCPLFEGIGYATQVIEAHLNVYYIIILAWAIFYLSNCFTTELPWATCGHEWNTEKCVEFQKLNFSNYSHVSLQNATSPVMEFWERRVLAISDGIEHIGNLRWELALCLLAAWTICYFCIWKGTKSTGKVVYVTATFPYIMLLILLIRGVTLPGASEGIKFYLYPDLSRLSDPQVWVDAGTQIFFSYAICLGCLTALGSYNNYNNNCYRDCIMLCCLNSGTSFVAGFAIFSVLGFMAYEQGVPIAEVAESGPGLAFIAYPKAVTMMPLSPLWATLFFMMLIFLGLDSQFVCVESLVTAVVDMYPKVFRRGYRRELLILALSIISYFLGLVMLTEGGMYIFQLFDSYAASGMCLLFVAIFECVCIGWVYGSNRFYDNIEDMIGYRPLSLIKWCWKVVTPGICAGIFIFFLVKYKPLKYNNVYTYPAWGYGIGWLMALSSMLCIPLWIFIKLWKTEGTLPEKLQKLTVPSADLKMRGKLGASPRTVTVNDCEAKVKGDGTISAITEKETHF
Summary of the method: as §1

Ki (mGAT1 [1]): 38.9 µM
remaining activity at 100 µM (mGAT2): 66.3%
IC50 (mGAT1 [2]): 67.6 µM
IC50 (mGAT4): 1.7 µM
Structure (SMILES): COc1ccc(C(OCCN2CCCC(C(=O)O)C2)(c2ccc(C=O)cc2)c2ccc(OC)cc2)cc1 (racemic) [5 a, rac‐ 1‐{2‐[(4‐Formylphenyl)bis(4‐methoxyphenyl)methoxy]ethyl}piper‐idine‐3‐carboxylic acid]

From PMC7317212 (Chemmedchem, 2020)
